Test results as given in ChEMBL document CHEMBL1914296, “Copper(II) chloride mediated synthesis and DNA photocleavage activity of 1-aryl/heteroaryl-4-substituted-1,2,4-triazolo[4,3-a]quinoxalines” (Eur J Med Chem, 2011).

How the values were obtained:
[1] = Solubility of compound in DMSO; type: physicochemical
Nucleic Acid [2] = test: (§1) Induction of bacteriophage supercoiled double stranded phiX174 plasmid DNA cleavage assessed as formation of relaxed open circular form at 40 ug using ethidium bromide staining by agarose gel electrophoresis-based UV transilluminator analysis relative to control; type: nucleic-acid assay; parameters: scale not given: the % may be the effect or the level left; details: unidentified phage
Nucleic Acid [3] = test: as §1, with “30” for “40”, “ug followed by UV irradiation for 45 mins” for “ug”; type: nucleic-acid assay; parameters: scale not given: the % may be the effect or the level left; details: unidentified phage
Nucleic Acid [4] = test: as §1, with “80” for “40”, “ug followed by UV irradiation for 45 mins” for “ug”; type: nucleic-acid assay; parameters: scale not given: the % may be the effect or the level left; details: unidentified phage
Nucleic Acid [5] = test: as §1, with “120” for “40”, “ug followed by UV irradiation for 45 mins” for “ug”; type: nucleic-acid assay; parameters: scale not given: the % may be the effect or the level left; details: unidentified phage

| solubility [1] | Activity (Nucleic Acid [2]) [%] | Activity (Nucleic Acid [3]) [%] | Activity (Nucleic Acid [4]) [%] | Activity (Nucleic Acid [5]) [%] | Compound |
| --- | --- | --- | --- | --- | --- |
| soluble |  |  |  |  | Cc1nc2ccccc2n2c(-c3ccccc3[N+](=O)[O-])nnc12 |
| soluble | 0 | 26 | 53 | 68 | Cc1nc2ccccc2n2c(-c3cccs3)nnc12 |
| soluble |  |  |  |  | Cc1nc2ccccc2n2c(-c3ccco3)nnc12 |
| soluble |  |  |  |  | Cc1nc2ccccc2n2c(-c3ccccc3Cl)nnc12 |
